Each structure is given as a SMILES string.

Here are results for twelve compounds from patent US20260115185A1, “QUINOLINE DERIVATIVES WHICH ACT AS KAPPA-OPIOID RECEPTOR ANTAGONISTS” (The Scripps Research Institute, priority 2023, published 2026).

Experiment [1] addresses T1, kappa opioid receptor (KOR) (Homo sapiens, UniProt P41145).
T1 construct: host or cells: U2OS (Tango OPRK1-bla U2OS)
As to the kind of experiment: OPRKappa 1 Tango B-Arrestin Assay, antagonist mode (Tango OPRK1-bla U2OS cells, U50488 EC80 challenge). The class given is cell-based. The settings on record: for Selectivity (MOR/KOR): Kappa selectivity, MOR IC50 / KOR IC50; for IC50: antagonist mode, Tango OPRK1-bla U2OS cells, 6 nM U50488 challenge. An excerpt:
OPRKappa 1 Tango B-Arrestin Assay Protocol-Antagonist Mode. […] The assay uses Tango OPRK1-bla U2OS cells which express OPRK1 linked to a GAL4-VP16 transcription factor via a TEV protease site. The cells also express a β-arrestin/TEV protease fusion protein and a β-lactamase (BLA) reporter gene under the control of a UAS response element. Stimulation of the OPRK1 receptor by agonist causes migration of the β-arrestin fusion protein to the GPCR, and through proteolysis liberates GAL4-VP16 from the receptor. The liberated VP16-GAL4 migrates to the nucleus, where it induces transcription of the BLA gene. BLA expression is monitored by measuring fluorescence resonance energy transfer (FRET) of a cleavable, fluorogenic, cell-permeable BLA substrate. As designed, test compounds that are OPRK1 antagonists inhibit agonist activation and migration of the fusion protein, thus preventing proteolysis of GAL4-VP16 and BLA transcription, leading to no increase in well FRET. Compounds were tested in quadruplicate using a 10-point, 1:3 dilution series starting at a nominal concentration of 10 micromolar.
The Tango OPRK1-U20S Dividing cell line was routinely cultured in 150 mm dishes at 37C, 5% CO2 and 95% relative humidity (RH).
On Day 1 of the assay, 16,000 cells in 10 μL of assay media (DMEM-Glutamax—with Sodium Pyruvate, 10% fetal bovine serum stripped with charcoal-dextran (CDS), 25 mM HEPES, 0.1 mM non-essential amino acids, antibiotic mix (penicillin streptomycin)) were seeded into each well of a 384 Greiner 788092 black low profile, clear bottom, low volume plate, and incubated 16-24 hours at 37° C., 5% CO2 and 95% (RH).
On Day 2, 50 nL of test compound in DMSO was added to the appropriate wells and plates were incubated for 30 min at 37° C. 5% CO2 and 95% (RH). Next was added 0.65 μL of commercially available U50488 OPRK1 agonist or DMSO in assay media: this EC80 Challenge consists of 0.6 μL of 111 nM U50488 to yield a final assay concentration of 6 nM). After incubation for 4 hours at 37° C., 5% CO2 and 95% (RH), 2.5 μL of LiveBLazer™FRET B/G (CCF4-AM) Mix (Soln.'s A,B,C,&D) was added to each well and incubated at room temperature in the dark for 2 hours. Well fluorescence was measured on Perkin Elmer's Envision using an Excitation filter 409 nm, Emission filters at 460 nm and […], bottom read.
(§1) The Percent Inhibition was calculated from the median ratio as follows:
• Tango™OPRK1-bla U20S Cells (Invitrogen K1576) • McCoy's 5A Medium, (Invitrogen 16600-082) • Dialyzed Fetal Bovine Serum, (Invitrogen 26400-036) • Non Essential Amino Acids 100× (Invitrogen part 11140-050) • HEPES (pH 7.3) 1M, (Invitrogen 15630-080) • Sodium Pyruvate 100× (Invitrogen 11360-070) • Penicillin Streptomycin, (Invitrogen 15640) • Trypsin 0.25% EDTA (Invitrogen 25200056) • DPBS without Calcium/Magnesium (Invitrogen 14190-136) • DMEM, High Glucose, GlutaMAX (Invitrogen 10569-010) • Fetal Bovine Serum, Charcoal Stripped (Invitrogen 12676-011) • DMSO Dry (Sigma D2650) • U50488 OPRK1 Agonist MW410.29 (Tocris 67198-19-0) • GNTI dihydrochloride OPRK1 Antagonist MW571.5 (Tocris 1282) • Nor-Binaltorphimine dihydrochloridc MW770.75 (Tocris 0347)
LiveBLAzere™-FRET/BG Loading Mix: (Invitrogen K1030 (5 mg)), composed of Solutions A, B, C, and D: • Solution A (6 μL): LiveBLAzer™-FRET/BG Substrate (CCF4-AM) • Solution B (60 μL) • Solution C (904 μL) • Solution C (must add 250 μl of 1N NaOH to 45 mL of Solution C prior to use) • Solution D (30 μL) [Probinicid] (Sigma P8161) make 200 mM stock in NaOH—H2O.

For the next experiment, the target named is T2, mu opioid receptor (MOR) (Homo sapiens, UniProt P35372).
T2 construct: host or cells: U2OS (Discover X OPRMu1-U2OS, PathHunter)
The experiment is described as follows: OPRMu1 Discover X β-arrestin Assay, antagonist mode (U2OS cells, DAMGO EC80 challenge). The class given is cell-based.
Description: OPRMu1 Discover X—β-arrestin Assay—Antagonist Mode. […] This assay evaluates the OPRMu1 activation in membrane recruitment of β-arrestin. In addition, the assay evaluates GPCR-β-arrestin proximity using low affinity fragment complementation of beta-galactosidase (beta-gal). The assay employs U20S cells, which express OPRMu1 fused to the complementary beta-gal fragment (enzyme acceptor). As designed, compounds that act as antagonists will prevent receptor activation resulting in reduced well luminescence. Compounds were tested in quadruplicate using a 10-point, 1:3 dilution series starting at a nominal concentration of 10 micromolar.
The Discover X OPRMu1-U20S cell line was cultured in 150 mm dishes at 37° C., 5% CO2 and 95% relative humidity (RH).
On Day 1 of the assay, 5000 cells in 20 μL of assay buffer (Discover X's Cell Plating Reagent 5) were seeded into each well of a 384 Corning 3570 standard white plate, and incubated 16-24 hours at 37° C., 5% CO2 and 95% RH.
On Day 2, 100 nL of test compound in DMSO were added to the appropriate wells and the plates were then incubated for 30 min at 37° C. 5% CO2 and 95% RH. Next, 2.2 μL of DAMGO OPRMu1 agonist (commercially available) or DMSO in assay media. (The EC80 Challenge consists of 1.8 μL of 3.7 μM DAMGO, 0.4 μL of Assay Buffer, with a final assay concentration of 303 nM). After incubation for 3 hours at 37° C. 5% CO2, and 95% RH, 10 μL of Path Hunter Detection Mix was added to each well, and the plate was then incubated at room temperature in the dark for 1 hour. Well luminescence was measured on Perkin Elmer's Envision.
as §1
• DMEM Medium, (Invitrogen 11965) • F12 Medium, (Invitrogen 11765) • Heat Inactivated Fetal Bovine Serum, (Invitrogen 10082147) • Non Essential Amino Acids 100× (Invitrogen 11140-050) • HEPES (pH 7.3) 1M, (Invitrogen 15630-080) • Sodium Pyruvate 100× (Invitrogen 11360-070) • Penicillin Streptomycin, (Invitrogen 15640) • Trypsin 0.25% EDTA (Invitrogen 25200056) • DPBS without Calcium/Magnesium (Invitrogen 14190-136) • DMSO Dry (Sigma D2650) • DAMGO OPRMu1 Agonist MW513.19 (Sigma E7384-5MG) • B-Funaltrexamine Hydrochloride OPRM1 Antagonist MW (SIGMA 0003-2MG) • PathHunter Cell Plating 5 Reagent (Discover X 93-0563R5A) • Corning 3750 Standard 384 well white plate with lid.
PathHunter Detection Mix (DiscoverX 93-0001): 1 part Galacton Star/5 parts Emerald II/19 parts PH Cell Assay Buffer.

T1 sequence (P41145 whole entry): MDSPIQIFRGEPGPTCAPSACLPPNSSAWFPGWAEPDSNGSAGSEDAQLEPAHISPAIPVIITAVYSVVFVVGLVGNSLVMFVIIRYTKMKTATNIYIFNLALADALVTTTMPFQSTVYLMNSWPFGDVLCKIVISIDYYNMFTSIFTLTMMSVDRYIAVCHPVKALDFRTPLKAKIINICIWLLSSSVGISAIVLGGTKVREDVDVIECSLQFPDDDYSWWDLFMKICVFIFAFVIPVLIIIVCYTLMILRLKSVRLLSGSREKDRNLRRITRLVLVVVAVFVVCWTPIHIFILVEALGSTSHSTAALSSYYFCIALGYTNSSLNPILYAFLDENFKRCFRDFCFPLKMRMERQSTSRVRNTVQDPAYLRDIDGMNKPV
T2 sequence (P35372 whole entry): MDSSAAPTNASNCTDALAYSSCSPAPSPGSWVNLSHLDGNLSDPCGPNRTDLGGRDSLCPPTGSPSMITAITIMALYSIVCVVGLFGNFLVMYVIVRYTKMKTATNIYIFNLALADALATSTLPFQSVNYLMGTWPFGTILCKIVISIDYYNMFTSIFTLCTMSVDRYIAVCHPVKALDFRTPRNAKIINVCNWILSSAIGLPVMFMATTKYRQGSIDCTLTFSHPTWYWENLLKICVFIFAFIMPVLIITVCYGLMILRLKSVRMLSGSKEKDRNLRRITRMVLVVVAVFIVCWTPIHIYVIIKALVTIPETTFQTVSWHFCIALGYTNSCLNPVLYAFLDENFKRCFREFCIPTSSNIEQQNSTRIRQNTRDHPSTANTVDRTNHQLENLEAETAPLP

The term IC50 denotes the concentration that inhibits the measured activity by half. As to `CCc1cc(F)c2nc(N3CCN(C4CCOCC4)C[C@@H]3C)c(-c3nc(C)no3)c(C)c2c1` (single isomer, unassigned) [Compound 28], in experiment [1], the “Selectivity (MOR/KOR)” value is “++++ (more than 1000-fold selectivity over MOR)” and the IC50 is 1 to 10 nM. The compound also had an IC50 against mu opioid receptor (MOR) of over 1000 nM.
The like results for `CCc1cc(F)c2nc(N3CC[C@H](NC4CCOCC4)[C@H](F)C3)c(-c3cc(C(F)(F)F)n(C)n3)c(C)c2c1` (stereo in doubt) [Compound 83] were, in that order, “+++ (between 100- to 1000-fold selective)”, at least 100 nM and over 1000 nM.
As to `CCc1cc(F)c2nc(N3CC[C@@H]4[C@@H](CCN4C[C@@H]4CCOC4)C3)c(-c3ccn(C)n3)c(C)c2c1` (stereo in doubt) [Compound 127], the “Selectivity (MOR/KOR)” value in experiment [1] is listed as “+++ (between 100- to 1000-fold selective)”. In addition, the IC50 was at least 100 nM in experiment [1] and over 1000 nM against mu opioid receptor (MOR).
Regarding `CCc1cc(F)c2nc(N3CC[C@H]4[C@H](CCN4C[C@@H]4CCOC4)C3)c(-c3ccn(C)n3)c(C)c2c1` (stereo in doubt) [Compound 129], in experiment [1], the “Selectivity (MOR/KOR)” value is “++ (between 10- and 100-fold selectivity)”; the IC50 was in the range of 10 to 100 nM. At mu opioid receptor (MOR), the IC50 was over 1000 nM.
As for `CCc1cc(F)c2nc(N3CCN(C(=O)[C@H](C)N4CC[C@@H](F)C4)C[C@H]3C)c(-c3nc(C)no3)c(C)c2c1` (stereo in doubt) [Compound 151], in experiment [1], the “Selectivity (MOR/KOR)” value was “+++ (between 100- to 1000-fold selective)” and the IC50 is 1 to 10 nM. Besides, the IC50 against mu opioid receptor (MOR) was over 1000 nM.
Consider `CCc1cc(-c2ccnn2C)c2nc(N3CC[C@H](NC4CCOCC4)[C@H](F)C3)c(-c3ccn(C)n3)c(C)c2c1` [Compound 1, (3R,4S)-1-(6-ethyl-4-methyl-3-(1-methyl-1H-pyrazol-3-yl)-8-(1-methyl-1H-pyrazol-5-yl)quinolin-2-yl)-3-fluoro-N-(tetrahydro-2H-pyran-4-yl)piperidin-4-amine], for which the “Selectivity (MOR/KOR)” value in experiment [1] is “+++ (between 100- to 1000-fold selective)”. Moreover, the IC50 in experiment [1] is 1 to 10 nM; against mu opioid receptor (MOR), over 1000 nM.
The corresponding values for `CCc1cc(F)c2nc(N3CCN(CC4CCOCC4)C[C@H]3C)c(-c3ccn(C)n3)c(C)c2c1` [Compound 2, (R)-6-ethyl-8-fluoro-4-methyl-3-(1-methyl-1H-pyrazol-3-yl)-2-(2-methyl-4-((tetrahydro-2H-pyran-4-yl)methyl)piperazin-1-yl)quinoline] are “+++ (between 100- to 1000-fold selective)”, 1 to 10 nM and over 1000 nM.
The like results for `CCc1cc(F)c2nc(N3CCC(N[C@H]4CCOC[C@@H]4F)CC3)c(-c3cc(C)n(C)n3)c(C)c2c1` [Compound 3, 1-(3-(1,5-dimethyl-1H-pyrazol-3-yl)-6-ethyl-8-fluoro-4-methylquinolin-2-yl)-N-((3R,4S)-3-fluorotetrahydro-2H-pyran-4-yl)piperidin-4-amine] were, in that order, “+++ (between 100- to 1000-fold selective)”, 1 to 10 nM and 100 to 1000 nM.
Take `CCc1cc(F)c2nc(N3CCC(N[C@@H]4CCOC[C@H]4F)CC3)c(-c3cc(C)n(C)n3)c(C)c2c1` [Compound 4, 1-(3-(1,5-dimethyl-1H-pyrazol-3-yl)-6-ethyl-8-fluoro-4-methylquinolin-2-yl)-N-((3S,4R)-3-fluorotetrahydro-2H-pyran-4-yl)piperidin-4-amine]: the “Selectivity (MOR/KOR)” value in experiment [1] is “++ (between 10- and 100-fold selectivity)”. In addition, the values for the IC50 (in experiment [1]; against mu opioid receptor (MOR)) were 10 to 100 nM and 100 to 1000 nM, respectively.
`CCc1cc(F)c2nc(N3CCC(N[C@H]4CCOC[C@H]4F)CC3)c(-c3cc(C)n(C)n3)c(C)c2c1` [Compound 5, 1-(3-(1,5-dimethyl-1H-pyrazol-3-yl)-6-ethyl-8-fluoro-4-methylquinolin-2-yl)-N-((3S,4S)-3-fluorotetrahydro-2H-pyran-4-yl)piperidin-4-amine]: the “Selectivity (MOR/KOR)” value in experiment [1] is recorded as “+++ (between 100- to 1000-fold selective)”. Besides, the IC50 is 1 to 10 nM in experiment [1] and 100 to 1000 nM on mu opioid receptor (MOR).
The like results for `CCc1cc(-c2ccnn2C)c2nc(N3CCC(N[C@H]4CCOC[C@@H]4F)CC3)c(-c3ccn(C)n3)c(C)c2c1` [Compound 9, 1-(6-ethyl-4-methyl-3-(1-methyl-1H-pyrazol-3-yl)-8-(1-methyl-1H-pyrazol-5-yl)quinolin-2-yl)-N-((3R,4S)-3-fluorotetrahydro-2H-pyran-4-yl)piperidin-4-amine] were, in that order, “+++ (between 100- to 1000-fold selective)”, under 1 nM and 100 to 1000 nM.
`CCN/C(=N/C#N)N1CCN(c2nc3c(F)cc(CC)cc3c(C)c2-c2ccn(C)n2)[C@H](C)C1` [Compound 10, (R,E)-N′-cyano-N-ethyl-4-(6-ethyl-8-fluoro-4-methyl-3-(1-methyl-1H-pyrazol-3-yl)quinolin-2-yl)-3-methylpiperazine-1-carboximidamide]: the “Selectivity (MOR/KOR)” value in experiment [1] is “++ (between 10- and 100-fold selectivity)”. Further, the IC50 in experiment [1] is at least 100 nM; on mu opioid receptor (MOR), over 1000 nM.
